Values quoted from earlier work as cited in US20150045434A1, “METHIONINE COMPOUND INTENDED FOR ANIMAL FEED” (ROQUETTE FRERES, priority 2011, published 2015).

Tests used:
[1] = at 35° C.

pKa1 (pKa of the acid function of methionine) (acid function): 2.2 | pKa2 (pKa of the amine function of methionine) (amine function): 9.3 | solubility of methionine [1]: about 70 g/l
Compound: CSCC[C@H](N)C(=O)O [methionine]
